Experimental data: article PMC8634768 (ChemistryOpen, 2021)

Tests used:
Hsp90α = Hsp90α (Homo sapiens, UniProt P07900); experiment: fluorescence polarization competition with FITC-geldanamycin; assay type: binding
PDHK1 = PDHK1 (Homo sapiens, UniProt Q15118); experiment: HotSpot […]-ATP radiometric filter-binding kinase assay; assay type: biochemical
PDHK1, sequence (Q15118 29-436): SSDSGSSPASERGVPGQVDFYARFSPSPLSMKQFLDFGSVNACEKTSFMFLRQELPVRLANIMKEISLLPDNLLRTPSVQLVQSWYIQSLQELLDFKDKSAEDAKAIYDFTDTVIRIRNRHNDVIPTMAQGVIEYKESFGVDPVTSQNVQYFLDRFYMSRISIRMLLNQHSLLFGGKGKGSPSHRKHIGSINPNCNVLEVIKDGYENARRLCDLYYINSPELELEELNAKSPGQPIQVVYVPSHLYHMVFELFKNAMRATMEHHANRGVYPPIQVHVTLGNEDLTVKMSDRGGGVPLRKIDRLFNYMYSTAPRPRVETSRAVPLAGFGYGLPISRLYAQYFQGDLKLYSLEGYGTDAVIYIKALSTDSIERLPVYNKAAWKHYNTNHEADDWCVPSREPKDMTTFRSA

| IC50 (Hsp90α) | IC50 (PDHK1) | SMILES |
| --- | --- | --- |
| 7 nM | 28700 nM | CC(C)c1cc(-n2nnc(C(=O)Nc3cccc(NS(C)(=O)=O)c3)c2-c2ccncc2)c(O)cc1O [4a, 1‐(2,4‐dihydroxy‐5‐isopropylphenyl)‐N‐[3‐(methylsulfonamido)phenyl]‐5‐(pyridin‐4‐yl)‐1H‐1,2,3‐triazole‐4‐carboxamide] |
| 1700 nM |  | CC(C)c1cc(-n2nnc(C(=O)Nc3c(F)ccc(NS(C)(=O)=O)c3F)c2-c2ccncc2)c(O)cc1O [4b, N‐[2,6‐difluoro‐3‐(methylsulfonamido)phenyl]‐1‐(2,4‐dihydroxy‐5‐isopropylphenyl)‐5‐(pyridin‐4‐yl)‐1H‐1,2,3‐triazole‐4‐carboxamide] |
| 1100 nM |  | CCS(=O)(=O)Nc1ccc(F)c(NC(=O)c2nnn(-c3cc(C(C)C)c(O)cc3O)c2-c2ccncc2)c1F [4c, 1‐(2,4‐dihydroxy‐5‐isopropylphenyl)‐N‐[3‐(ethylsulfonamido)‐2,6‐difluorophenyl]‐5‐(pyridin‐4‐yl)‐1H‐1,2,3‐triazole‐4‐carboxamide] |
| 30 nM | 38300 nM | CCCS(=O)(=O)Nc1ccc(F)c(NC(=O)c2nnn(-c3cc(C(C)C)c(O)cc3O)c2-c2ccncc2)c1F [4d, N‐[2,6‐difluoro‐3‐(propylsulfonamido)phenyl]‐1‐(2,4‐dihydroxy‐5‐isopropylphenyl)‐5‐(pyridin‐4‐yl)‐1H‐1,2,3‐triazole‐4‐carboxamide] |
|  | 7100 nM | O=C1Nc2ccc(I)cc2C1=Cc1cc(Br)c(O)c(Br)c1 [GW5074, reference compound] |
